Laboratory results from patent US20160002247A1, “8-SUBSTITUTED IMIDAZOPYRIMIDINONE DERIVATIVE HAVING AUTOTAXIN INHIBITORY ACTIVITY” (THE UNIVERSITY OF TOKYO, priority 2013, published 2016).

target: T1, Human autotaxin enzyme (Homo sapiens, UniProt Q13822); assay: Evaluation of autotaxin inhibitor, Method C (Test Example 3): 18:0 Lyso PC, choline assay, Resorufin fluorescence; type: biochemical; conditions: Assay Method C, human autotaxin, 18:0 Lyso PC substrate; read-out: Inhibitory Activity
T1 construct: purchased R&D System
How it was run: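 Choline-coupled fluorescence readout (20 min, resorufin at 531/598 nm) followed a 2 h room-temperature reaction of human autotaxin with 18:0 Lyso PC substrate (added as 200 μM solution) in pH 7.5 Tris buffer containing MgCl2 and Triton X-100. Percent inhibition scaled to no-compound (0%) and no-enzyme (100%) wells and plotted versus concentration.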

Row | SMILES | IC50 [nM]
1 | N#CCN(CC#N)C(=O)Cc1cn(CCCC(F)(F)F)c2nc(-c3ccc(Cl)cc3)cn2c1=O [Compound 839] | 100 to 1000
2 | CC(C)(C)OC(=O)NCCNC(=O)Cc1cn(CCCC(F)(F)F)c2nc(-c3ccc(Cl)cc3)cn2c1=O [Compound 840] | 100 to 1000
3 | NC(=O)CNC(=O)Cc1cn(CCCC(F)(F)F)c2nc(-c3ccc(Cl)cc3)cn2c1=O [Compound 841] | > 1000
4 | O=C(Cc1cn(CCCC(F)(F)F)c2nc(-c3ccc(Cl)cc3)cn2c1=O)NCc1cc(=O)[nH]o1 [Compound 842] | 100 to 1000
5 | O=C(Cc1cn(CCCC(F)(F)F)c2nc(-c3ccc(Cl)cc3)cn2c1=O)NCCO [Compound 843] | > 1000
6 | O=C(Cc1cn(CCCC(F)(F)F)c2nc(-c3ccc(Cl)cc3)cn2c1=O)NCC(O)CO (centres unmarked) [Compound 844] | > 1000
7 | CONC(=O)Cc1cn(CCCC(F)(F)F)c2nc(-c3ccc(Cl)cc3)cn2c1=O [Compound 845] | 100 to 1000
8 | O=C(Cc1cn(CCCC(F)(F)F)c2nc(-c3ccc(Cl)cc3)cn2c1=O)NC1COC1 [Compound 846] | > 1000
9 | O=C1CN(C(=O)Cc2cn(CCCC(F)(F)F)c3nc(-c4ccc(Cl)cc4)cn3c2=O)CCN1 [Compound 847] | > 1000
10 | O=C(Cc1cn(CCCC(F)(F)F)c2nc(-c3ccc(Cl)cc3)cn2c1=O)N[C@@H](CO)Cc1ccccc1 [Compound 848] | > 1000
11 | CS(=O)(=O)CCNC(=O)Cc1cn(CCCC(F)(F)F)c2nc(-c3ccc(Cl)cc3)cn2c1=O [Compound 849] | > 1000
12 | C[C@@H]1COC[C@H](C)N1C(=O)Cc1cn(CCCC(F)(F)F)c2nc(-c3ccc(Cl)cc3)cn2c1=O [Compound 850] | 100 to 1000
13 | CNC(=O)Cc1cn(CCCC(F)(F)F)c2nc(-c3ccc(Cl)cc3)cn2c1=O [Compound 851] | 100 to 1000
14 | O=C(Cc1cn(CCCC(F)(F)F)c2nc(-c3ccc(Cl)cc3)cn2c1=O)N[C@H]1CCN(C2COC2)C1 [Compound 852] | > 1000
15 | O=C(Cc1cn(CCCC(F)(F)F)c2nc(-c3ccc(Cl)cc3)cn2c1=O)N1CCN(CCO)CC1 [Compound 853] | > 1000
16 | CN(CC(O)CO)C(=O)Cc1cn(CCCC(F)(F)F)c2nc(-c3ccc(Cl)cc3)cn2c1=O (centres unmarked) [Compound 854] | > 1000
17 | NS(=O)(=O)CCNC(=O)Cc1cn(CCCC(F)(F)F)c2nc(-c3ccc(Cl)cc3)cn2c1=O [Compound 855] | > 1000
18 | CC(=O)CNC(=O)Cc1cn(CCCC(F)(F)F)c2nc(-c3ccc(Cl)cc3)cn2c1=O [Compound 856] | > 1000
19 | CC(C)(O)CNC(=O)Cc1cn(CCCC(F)(F)F)c2nc(-c3ccc(Cl)cc3)cn2c1=O [Compound 857] | > 1000
20 | O=C(Cc1cn(CCCC(F)(F)F)c2nc(-c3ccc(Cl)cc3)cn2c1=O)NCc1nn[nH]n1 [Compound 858] | 10 to 100
21 | N#CC(NC(=O)Cc1cn(CCCC(F)(F)F)c2nc(-c3ccc(Cl)cc3)cn2c1=O)C(N)=O (centres unmarked) [Compound 859] | > 1000
22 | O=C1CCN(C(=O)Cc2cn(CCCC(F)(F)F)c3nc(-c4ccc(Cl)cc4)cn3c2=O)C1 [Compound 860] | 100 to 1000
23 | CCC(CO)(CO)NC(=O)Cc1cn(CCCC(F)(F)F)c2nc(-c3ccc(Cl)cc3)cn2c1=O [Compound 861] | 10 to 100
24 | N#CC1CN(C(=O)Cc2cn(CCCC(F)(F)F)c3nc(-c4ccc(Cl)cc4)cn3c2=O)CCO1 (centres unmarked) [Compound 862] | 10 to 100
25 | Cc1noc(CNC(=O)Cc2cn(CCCC(F)(F)F)c3nc(-c4ccc(Cl)cc4)cn3c2=O)n1 [Compound 863] | 100 to 1000
26 | CS(=O)(=O)CCOCCNC(=O)Cc1cn(CCCC(F)(F)F)c2nc(-c3ccc(Cl)cc3)cn2c1=O [Compound 864] | > 1000
27 | O=C(Cc1cn(CCCC(F)(F)F)c2nc(-c3ccc(Cl)cc3)cn2c1=O)N1CCOCC1 [Compound 865] | 100 to 1000
28 | O=C(Cc1cn(CCCC(F)(F)F)c2nc(-c3ccc(Cl)cc3)cn2c1=O)N[C@H](CO)Cc1ccccc1 [Compound 866] | > 1000
29 | C[C@H]1CCCCN1C(=O)Cc1cn(CCCC(F)(F)F)c2nc(-c3ccc(Cl)cc3)cn2c1=O [Compound 867] | 10 to 100

target: T1, Human autotaxin enzyme; assay: Evaluation of autotaxin inhibitor, Method B (Test Example 2): TG-mTMP fluorescence; type: biochemical; conditions: Assay Method: Method B (Test Example 2); read-out: Inhibitory Activity (Enzyme Inhibitory Activity, IC50)
Description: (Method B) Evaluation of Autotaxin Inhibitor
Solution A containing 25 mM Tris-HCl buffer (pH7.5), 100 mM NaCl, 5 mM MgCl2 and 0.1% BSA was prepared. Human autotaxin enzyme (purchased from R&D System) was diluted with Solution A, and 5 μL of which was added to a solution of test compound in DMSO. Furthermore, 5 μl of 0.5 μM TG-mTMP in Solution A was added and allowed to react at room temperature for 2 hours. 5 μl of 150 mM EDTA in Solution A was added to quench the reaction, and the fluorescent dye TokyoGreen, which was produced by the reaction, was detected. The fluorescence was detected using ViewLux (PerkinElmer, Inc.) with an excitation wavelength of 480 nm and a fluorescence wavelength of 540 nm.

Row | SMILES | IC50 [nM]
30 | CCCCn1c(C)cc(=O)n2cc(-c3ccc(Cl)cc3)nc12 [Compound 7] | 10 to 100
31 | CCCCCCn1c(C)cc(=O)n2cc(-c3ccc(Cl)cc3)nc12 [Compound 8] | 10 to 100
32 | Cc1cc(=O)n2cc(-c3ccc(Cl)cc3)nc2n1Cc1ccccc1 [Compound 13] | 10 to 100
33 | CCCCCn1c(C)cc(=O)n2cc(-c3ccc(Br)cc3)nc12 [Compound 18] | < 10
34 | CCOCCn1c(C)cc(=O)n2cc(-c3ccc(Cl)cc3)nc12 [Compound 26] | 10 to 100
35 | CCC(=O)Cn1c(C)cc(=O)n2cc(-c3ccc(Cl)cc3)nc12 [Compound 28] | 10 to 100
36 | CC(=O)OCCn1c(C)cc(=O)n2cc(-c3ccc(Cl)cc3)nc12 [Compound 29] | 10 to 100
37 | CCCC(O)Cn1c(C)cc(=O)n2cc(-c3ccc(Cl)cc3)nc12 (centres unmarked) [Compound 42] | 10 to 100
38 | C=CCCCn1c(C)cc(=O)n2cc(-c3ccc(Cl)cc3)nc12 [Compound 43] | 10 to 100
39 | CCC/C=C/n1c(C)cc(=O)n2cc(-c3ccc(Cl)cc3)nc12 [Compound 44] | 10 to 100
40 | Cc1cc(=O)n2cc(-c3ccc(Cl)cc3)nc2n1CCCCCO [Compound 45] | 100 to 1000
41 | Cc1cc(=O)n2cc(-c3ccc(Cl)cc3)nc2n1CC(=O)C1CC1 [Compound 50] | 100 to 1000
42 | CCC(=O)C(C)n1c(C)cc(=O)n2cc(-c3ccc(Cl)cc3)nc12 (centres unmarked) [Compound 51] | 10 to 100
43 | Cc1cc(=O)n2cc(-c3ccc(Cl)cc3)nc2n1Cc1ccccc1F [Compound 53] | 10 to 100
44 | Cc1cc(=O)n2cc(-c3ccc(Cl)cc3)nc2n1C(C)c1ccccc1 (centres unmarked) [Compound 54] | 10 to 100
45 | Cc1cc(=O)n2cc(-c3ccc(Cl)cc3)nc2n1CCC(F)=C(F)F [Compound 55] | 10 to 100
46 | CCCC(C)n1c(C)cc(=O)n2cc(-c3ccc(Cl)cc3)nc12 (centres unmarked) [Compound 56] | 10 to 100
47 | Cc1cc(=O)n2cc(-c3ccc(Cl)cc3)nc2n1CC1CCCC1 [Compound 57] | 10 to 100
48 | Cc1cc(=O)n2cc(-c3ccc(Cl)cc3)nc2n1CC1CCCCC1 [Compound 58] | 10 to 100
49 | Cc1cc(=O)n2cc(-c3ccc(Cl)cc3)nc2n1CCCC(F)(F)F [Compound 59] | 10 to 100
50 | Cc1cccc(Cn2c(C)cc(=O)n3cc(-c4ccc(Cl)cc4)nc23)c1 [Compound 60] | 100 to 1000
51 | CC(=O)CCCn1c(C)cc(=O)n2cc(-c3ccc(Cl)cc3)nc12 [Compound 61] | 100 to 1000

Row | SMILES | IC50 [nM]
52 | CCN(CC)C(=O)Cn1c(C)cc(=O)n2cc(-c3ccc(Cl)cc3)nc12 [Compound 62] | 100 to 1000
53 | Cc1ccccc1Cn1c(C)cc(=O)n2cc(-c3ccc(Cl)cc3)nc12 [Compound 64] | 100 to 1000
54 | Cc1cc(=O)n2cc(-c3ccc(Cl)cc3)nc2n1CCC(F)(F)F [Compound 65] | 100 to 1000
55 | Cc1cc(=O)n2cc(-c3ccc(Cl)cc3)nc2n1CC1CC1 [Compound 66] | 10 to 100
56 | Cc1ccc(Cn2c(C)cc(=O)n3cc(-c4ccc(Cl)cc4)nc23)cc1 [Compound 67] | 10 to 100
57 | Cc1cc(=O)n2cc(-c3ccc(Cl)cc3)nc2n1CC(=O)NC(C)C [Compound 68] | > 1000
58 | Cc1cc(=O)n2cc(-c3ccc(Cl)cc3)nc2n1CC(=O)C1CCCCC1 [Compound 69] | > 1000
59 | Cc1cc(=O)n2cc(-c3ccc(Cl)cc3)nc2n1CCN(C)C [Compound 70] | 100 to 1000
60 | CCC(C)Cn1c(C)cc(=O)n2cc(-c3ccc(Cl)cc3)nc12 (centres unmarked) [Compound 71] | 10 to 100
61 | Cc1cc(=O)n2cc(-c3ccc(Cl)cc3)nc2n1CC(=O)OC(C)C [Compound 72] | 10 to 100
62 | Cc1cc(=O)n2cc(-c3ccc(Cl)cc3)nc2n1CC(=O)OC(C)(C)C [Compound 73] | 10 to 100
63 | Cc1cc(=O)n2cc(-c3ccc(Cl)cc3)nc2n1C(C)C(=O)OC(C)(C)C (centres unmarked) [Compound 74] | 100 to 1000
64 | CCN(CC)CCn1c(C)cc(=O)n2cc(-c3ccc(Cl)cc3)nc12 [Compound 75] | 100 to 1000
65 | Cc1cc(=O)n2cc(-c3ccc(Cl)cc3)nc2n1CCOC(C)C [Compound 76] | 100 to 1000
66 | Cc1cc(=O)n2cc(-c3ccc(Cl)cc3)nc2n1CC1CCC1 [Compound 77] | 10 to 100
67 | Cc1cc(=O)n2cc(-c3ccc(Cl)cc3)nc2n1CC(C)C [Compound 78] | 10 to 100
68 | Cc1cc(=O)n2cc(-c3ccc(Cl)cc3)nc2n1CCC(C)C [Compound 79] | 10 to 100
69 | CCOC(=O)C(C)n1c(C)cc(=O)n2cc(-c3ccc(Cl)cc3)nc12 (centres unmarked) [Compound 80] | 10 to 100
70 | Cc1cc(=O)n2cc(-c3ccc(Cl)cc3)nc2n1CCCC(C)C [Compound 81] | < 10
71 | Cc1cc(=O)n2cc(-c3ccc(Cl)cc3)nc2n1CCc1ccccc1 [Compound 82] | 10 to 100
72 | Cc1cc(=O)n2cc(-c3ccc(Cl)cc3)nc2n1C1CCC1 [Compound 83] | 10 to 100

same assay, conditions: Inhibitory Activity (Enzyme Inhibitory Activity, IC50), Assay Method: Method B (Test Example 2)

Row | SMILES | IC50 [nM]
73 | CCCCCn1c(C)cc(=O)n2cc(-c3ccc(Cl)cc3)nc12 [Compound 3, 2-(4-chlorophenyl)-7-methyl-8-pentyl-imidazo[1,2-a]pyrimidin-5(8H)-one] | < 10
74 | CCOC(=O)Cn1c(C)cc(=O)n2cc(-c3ccc(Cl)cc3)nc12 [Compound 20] | < 10
